Experimental data as given in patent US7759504B2, “Triarylamine derivative” (Fujifilm Corporation, priority 2007, dated 2010).

Key:
Assay type in all cases: physicochemical
[1] = Heat resistance of PMMA film sample (colorant residual rate); settings: 80° C. for 400 hours; 5% by weight in PMMA film; absorbance at maximum absorption wavelength after/before treatment
Procedure: (§1) Into 25 ml of dichloromethane were dissolved 2.5 g of PMMA, and 0.125 g of the triarylamine derivative, and the solution was coated on a 100 μm-thick PET film. This was dried at 80° C. for 2 hours under reduced pressure to prepare a sample for assessment having a thickness of from 2 to 3 μm. The sample for assessment contained the triarylamine derivative at 5% by weight based on PMMA.
(§2) The sample for assessment obtained above was heat-treated at 80° C. for 400 hours. The absorbance of the assessment sample at the maximum absorption wavelength of the triarylamine derivative (colorant) was measured, and a colorant residual rate (%) was obtained as a ratio of the absorbance after heat treatment relative to the absorbance before heat treatment.

[2] = Wet heat resistance of PMMA film sample (colorant residual rate); settings: 60° C. and relative humidity of 90% for 200 hours; 5% by weight in PMMA film; absorbance after/before treatment
Procedure: as §1
as §2, with “subjected to wet heat treatment” for “heat-treated”, “60°” for “80°”, “C. and a relative humidity of 90%” for “C.”, “200” for “400”, “after wet” for “after”, “before wet” for “before”

[3] = Solubility in 2-butanone (MEK)
[4] = Light resistance of PMMA film sample (colorant residual rate); settings: 170 hours xenon lamp (170 thousands lux, UV cut filter); 5% by weight in PMMA film; absorbance after/before treatment
Procedure: as §1
as §2, with “irradiation-treated” for “heat-treated at 80° C.”, “170 hours with a xenon lamp (170 thousands lux, using an UV cut filter).” for “400 hours.”, “irradiation” for “heat”

CCCCN(CCCC)c1ccc([N+](=C2C=CC(=[N+](CCCC)CCCC)C=C2)c2ccc(N(CCCC)CCCC)cc2)cc1 [Comparative Example, reference compound]
Heat Resistance (colorant residual rate) [1]: 80% | Wet Heat Resistance (colorant residual rate) [2]: 45% | Solubility (w/v) [3]: 16% w/v % | Light Resistance (colorant residual rate) [4]: 98%

CCCCN(CCCC)c1ccc([N+](=C2C=CC(=[N+](CCCC)CCCC)C=C2C)c2ccc(N(CCCC)CCCC)cc2)cc1 [Compound 28]
Heat Resistance (colorant residual rate) [1]: 82% | Wet Heat Resistance (colorant residual rate) [2]: 48% | Solubility (w/v) [3]: 23% w/v % | Light Resistance (colorant residual rate) [4]: 98%

CCCCN(CCCC)c1ccc([N+](=C2C=CC(=[N+](CCCC)CCCC)C=C2C)c2ccc(N(CCCC)CCCC)cc2)cc1 [Compound 79]
Heat Resistance (colorant residual rate) [1]: 87% | Wet Heat Resistance (colorant residual rate) [2]: 89% | Solubility (w/v) [3]: 32% w/v % | Light Resistance (colorant residual rate) [4]: 99%
